pIC50: −log10 of the molar value. Activity calls are given as the source filed them.
What was measured:
[1] = molecular target: T1, G-protein coupled receptor 55 (Homo sapiens, UniProt Q9Y2T6); assay: blockers of GPR55 signalling, imaged – imaging, image-based, counter-screen for GPR35 antagonist project, SAR follow-up (AID 2397); type: functional
Troponin, cardiac muscle = Troponin, cardiac muscle (Homo sapiens, UniProt P19429+P45379+P63316); assay: Fluorescence-based biochemical high throughput dose response assay for activators of the calcium sensitivity of cardiac Regulated Thin Filaments (RTF). [Related pubchem assays (depositor defined):AID493008, AID493018, AID504382, AID504383]; type: protein-complex assay
[2] = molecular target: T2, Rac GTPase-activating protein 1 (Homo sapiens, UniProt Q9H0H5); assay: blockers of MgcRacGAP-driven Rac1 GTP hydrolysis – biochemical, ADP Hunter fluorescence, primary and confirmatory, confirmation (AID 624330); type: functional
T2 sequence (Q9H0H5 whole entry): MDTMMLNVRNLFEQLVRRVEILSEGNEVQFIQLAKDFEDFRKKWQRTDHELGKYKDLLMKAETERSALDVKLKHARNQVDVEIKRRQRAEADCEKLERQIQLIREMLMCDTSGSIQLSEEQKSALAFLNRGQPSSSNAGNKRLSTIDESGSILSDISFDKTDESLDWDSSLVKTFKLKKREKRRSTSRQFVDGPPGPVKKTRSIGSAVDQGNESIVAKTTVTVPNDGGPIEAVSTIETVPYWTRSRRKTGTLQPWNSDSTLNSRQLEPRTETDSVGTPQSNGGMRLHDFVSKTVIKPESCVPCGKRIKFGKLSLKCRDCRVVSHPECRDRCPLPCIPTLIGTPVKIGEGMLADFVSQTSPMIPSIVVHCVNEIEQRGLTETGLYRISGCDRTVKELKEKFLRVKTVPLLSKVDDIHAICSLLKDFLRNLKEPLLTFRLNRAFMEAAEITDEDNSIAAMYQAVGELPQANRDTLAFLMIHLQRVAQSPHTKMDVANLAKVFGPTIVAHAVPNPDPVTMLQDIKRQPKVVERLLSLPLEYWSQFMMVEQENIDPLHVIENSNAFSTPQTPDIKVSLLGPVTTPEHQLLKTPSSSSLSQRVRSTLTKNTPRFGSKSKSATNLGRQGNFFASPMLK

[3] = molecular target: T3, Bifunctional protein GlmU (Mycobacterium tuberculosis, UniProt P9WMN3); assay: Inhibitors of Mycobacterial Glucosamine-1-phosphate acetyl transferase (GlmU). Secondary screen.; parameters: species or system Mycobacterium tuberculosis H37Rv
T3 sequence (P9WMN3 whole entry): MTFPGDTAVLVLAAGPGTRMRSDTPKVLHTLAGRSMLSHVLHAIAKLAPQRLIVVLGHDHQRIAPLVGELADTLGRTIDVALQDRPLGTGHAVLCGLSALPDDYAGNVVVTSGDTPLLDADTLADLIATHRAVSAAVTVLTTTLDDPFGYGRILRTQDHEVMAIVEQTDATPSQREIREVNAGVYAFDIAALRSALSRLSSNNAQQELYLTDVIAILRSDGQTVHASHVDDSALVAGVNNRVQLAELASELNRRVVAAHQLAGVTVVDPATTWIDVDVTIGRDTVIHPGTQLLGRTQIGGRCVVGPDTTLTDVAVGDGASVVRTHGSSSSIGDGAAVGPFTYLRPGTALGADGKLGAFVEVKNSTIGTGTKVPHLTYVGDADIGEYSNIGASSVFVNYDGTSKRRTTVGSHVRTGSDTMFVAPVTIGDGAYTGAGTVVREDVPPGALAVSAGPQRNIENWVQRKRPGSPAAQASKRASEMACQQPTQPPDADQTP

Protein skinhead-1 = molecular target: T4, Protein skinhead-1 (Caenorhabditis elegans, UniProt P34707); type: functional
T4 sequence (P34707 whole entry): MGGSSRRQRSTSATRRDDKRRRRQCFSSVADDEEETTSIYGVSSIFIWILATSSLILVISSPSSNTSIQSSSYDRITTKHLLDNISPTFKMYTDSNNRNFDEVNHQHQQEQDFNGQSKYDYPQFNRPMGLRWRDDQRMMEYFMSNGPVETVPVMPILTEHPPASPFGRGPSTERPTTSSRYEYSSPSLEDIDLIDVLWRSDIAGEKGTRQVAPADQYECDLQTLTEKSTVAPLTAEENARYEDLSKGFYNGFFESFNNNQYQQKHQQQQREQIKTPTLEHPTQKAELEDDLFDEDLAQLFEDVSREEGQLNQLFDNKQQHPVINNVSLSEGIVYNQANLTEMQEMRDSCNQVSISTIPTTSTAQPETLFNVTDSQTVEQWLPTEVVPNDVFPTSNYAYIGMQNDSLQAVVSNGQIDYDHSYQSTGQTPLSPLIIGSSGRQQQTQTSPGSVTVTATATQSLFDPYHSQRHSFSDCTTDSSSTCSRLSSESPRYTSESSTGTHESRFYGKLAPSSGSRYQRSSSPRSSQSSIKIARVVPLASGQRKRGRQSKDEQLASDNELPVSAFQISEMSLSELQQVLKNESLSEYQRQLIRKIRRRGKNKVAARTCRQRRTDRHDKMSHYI

[4] = molecular target: E3 ubiquitin-protein ligase Mdm2 (Homo sapiens, UniProt Q00987); assay: MDM2-luc reporter signal enhancers, multi-concentration potency testing, MDM2 ubiquitin-protein ligase inhibitor program, whole-cell format, luminescence detection, 384-well microplate (AID 1394); type: functional;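 further: MDM2 E3 inhibitors raise luminescence so EC50 is for signal enhancement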
Cannabinoid receptor 1 [5] = molecular target: T5, Cannabinoid receptor 1 (Homo sapiens, UniProt P21554); assay: SAR analysis of agonists of the Cannabinoid Receptor 1 using an Image-Based Assay - Set 4. [Related pubchem assays (depositor defined):AID2013, AID2026]; type: functional
Cannabinoid receptor 1 [6] = molecular target: T5, Cannabinoid receptor 1; assay: SAR analysis of antagonists of the Cannabinoid Receptor 1 using an Image-Based Assay - Set 4. [Related pubchem assays (depositor defined):AID2013, AID2026]; type: functional
[7] = molecular target: T6, G-protein coupled receptor 35 (Homo sapiens, UniProt Q9HC97); assay: SAR analysis of Agonists of the GPR35 Receptor using an Image-Based Assay - Set 4. [Related pubchem assays (depositor defined):AID2013, AID2026]; type: functional
Cannabinoid receptor 2 [8] = molecular target: T7, Cannabinoid receptor 2 (Homo sapiens, UniProt P34972); assay: SAR analysis of antagonists of the Cannabinoid Receptor 2 using an Image-Based Assay - Set 3. [Related pubchem assays (depositor defined):AID2013, AID2026]; type: functional
[9] = molecular target: T6, G-protein coupled receptor 35; assay: SAR analysis of Antagonists of the GPR35 Receptor using an Image-Based Assay - Set 6. [Related pubchem assays (depositor defined):AID2013, AID2026]; type: functional
Cannabinoid receptor 2 [10] = molecular target: T7, Cannabinoid receptor 2; assay: SAR analysis of agonists of the Cannabinoid Receptor 2 using an Image-Based Assay - Set 3. [Related pubchem assays (depositor defined):AID2013, AID2026]; type: functional
[11] = molecular target: T1, G-protein coupled receptor 55; assay: SAR Analysis of Selective Antagonists of GPR55 using an Image-Based Assay - Set 4. [Related pubchem assays (depositor defined):AID2013, AID2026]; type: functional
Mu-type opioid receptor = Mu-type opioid receptor (Homo sapiens, UniProt P35372); assay: HTS Image-Based Screen for Agonists of the MOR Receptor. [Related pubchem assays (depositor defined):AID1777, AID1785, AID1786, AID2133]; type: functional;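 further: imaging of beta-arrestin GFP recruitment into spots after receptor activation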
[12] = molecular target: T8, Kappa-type opioid receptor (Homo sapiens, UniProt P41145); type: functional
[13] = molecular target: T8, Kappa-type opioid receptor; type: functional; remark: listed apart in the source
[14] = molecular target: T9, Delta-type opioid receptor (Homo sapiens, UniProt P41143); assay: HTS Image-Based Screen for Agonists of the DOR Receptor. [Related pubchem assays (depositor defined):AID1777, AID1786, AID2133]; type: functional
[15] = molecular target: T9, Delta-type opioid receptor; assay: HTS Image-Based Screen for Antagonists of the DOR Receptor. [Related pubchem assays (depositor defined):AID1777, AID1785, AID1786, AID2133]; type: functional
Beta-galactosidase = Beta-galactosidase (Escherichia coli, UniProt Q8VNN2); type: functional
Sequence of Beta-galactosidase (Q8VNN2 whole entry): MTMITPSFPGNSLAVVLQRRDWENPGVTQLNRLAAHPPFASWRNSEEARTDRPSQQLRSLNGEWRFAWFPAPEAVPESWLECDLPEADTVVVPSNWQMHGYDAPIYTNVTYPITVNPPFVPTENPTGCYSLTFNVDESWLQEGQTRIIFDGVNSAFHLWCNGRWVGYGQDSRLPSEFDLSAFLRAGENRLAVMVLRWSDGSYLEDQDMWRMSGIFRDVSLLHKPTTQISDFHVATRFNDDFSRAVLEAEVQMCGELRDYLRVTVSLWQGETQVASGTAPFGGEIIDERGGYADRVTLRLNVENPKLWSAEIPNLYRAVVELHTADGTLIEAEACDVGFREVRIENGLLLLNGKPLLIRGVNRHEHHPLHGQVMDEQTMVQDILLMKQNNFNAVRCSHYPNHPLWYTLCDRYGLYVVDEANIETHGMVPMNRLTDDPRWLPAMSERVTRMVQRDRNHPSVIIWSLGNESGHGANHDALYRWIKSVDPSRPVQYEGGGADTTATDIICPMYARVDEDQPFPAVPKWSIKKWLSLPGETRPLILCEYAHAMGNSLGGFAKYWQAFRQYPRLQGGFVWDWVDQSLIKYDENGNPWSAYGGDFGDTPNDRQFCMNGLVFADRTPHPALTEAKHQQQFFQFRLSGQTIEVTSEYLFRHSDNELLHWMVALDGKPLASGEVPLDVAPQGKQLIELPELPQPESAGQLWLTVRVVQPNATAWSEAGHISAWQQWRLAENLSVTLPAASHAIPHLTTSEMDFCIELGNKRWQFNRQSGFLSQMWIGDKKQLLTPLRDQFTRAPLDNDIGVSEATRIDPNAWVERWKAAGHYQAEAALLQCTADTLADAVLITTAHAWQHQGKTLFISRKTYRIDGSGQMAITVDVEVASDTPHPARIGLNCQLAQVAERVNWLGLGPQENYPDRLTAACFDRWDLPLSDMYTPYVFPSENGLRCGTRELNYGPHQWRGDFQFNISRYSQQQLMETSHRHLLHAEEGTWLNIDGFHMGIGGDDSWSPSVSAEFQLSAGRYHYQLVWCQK

T7 sequence (P34972 whole entry): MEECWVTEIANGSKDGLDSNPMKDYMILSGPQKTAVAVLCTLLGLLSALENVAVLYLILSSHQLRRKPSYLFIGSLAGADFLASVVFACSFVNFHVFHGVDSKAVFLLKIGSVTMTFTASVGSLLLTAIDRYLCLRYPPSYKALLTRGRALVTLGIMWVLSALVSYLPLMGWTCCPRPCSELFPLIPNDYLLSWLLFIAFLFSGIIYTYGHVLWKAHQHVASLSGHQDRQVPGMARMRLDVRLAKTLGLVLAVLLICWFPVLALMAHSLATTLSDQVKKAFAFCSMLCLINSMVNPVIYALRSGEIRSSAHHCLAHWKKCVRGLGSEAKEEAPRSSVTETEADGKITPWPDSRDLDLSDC
T8 sequence (P41145 whole entry): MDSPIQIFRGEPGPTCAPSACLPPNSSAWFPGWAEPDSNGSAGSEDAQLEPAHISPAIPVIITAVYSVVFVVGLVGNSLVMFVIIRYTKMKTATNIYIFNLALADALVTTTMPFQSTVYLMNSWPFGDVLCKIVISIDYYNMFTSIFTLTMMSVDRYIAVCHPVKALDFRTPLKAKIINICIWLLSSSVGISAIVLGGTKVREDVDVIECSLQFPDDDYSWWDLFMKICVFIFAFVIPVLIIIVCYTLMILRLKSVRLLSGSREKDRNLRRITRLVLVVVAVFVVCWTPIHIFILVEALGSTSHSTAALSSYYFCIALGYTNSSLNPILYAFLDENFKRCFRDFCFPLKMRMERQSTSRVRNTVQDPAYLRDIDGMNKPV
T1 sequence (Q9Y2T6 whole entry): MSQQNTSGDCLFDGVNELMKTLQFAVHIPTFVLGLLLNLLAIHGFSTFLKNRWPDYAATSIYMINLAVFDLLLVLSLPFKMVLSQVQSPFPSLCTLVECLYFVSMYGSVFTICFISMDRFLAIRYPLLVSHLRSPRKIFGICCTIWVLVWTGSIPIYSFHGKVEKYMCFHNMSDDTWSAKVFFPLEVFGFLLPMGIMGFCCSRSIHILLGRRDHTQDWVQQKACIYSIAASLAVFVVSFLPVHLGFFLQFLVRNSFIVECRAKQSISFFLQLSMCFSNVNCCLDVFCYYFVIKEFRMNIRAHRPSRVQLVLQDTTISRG
T9 sequence (P41143 whole entry): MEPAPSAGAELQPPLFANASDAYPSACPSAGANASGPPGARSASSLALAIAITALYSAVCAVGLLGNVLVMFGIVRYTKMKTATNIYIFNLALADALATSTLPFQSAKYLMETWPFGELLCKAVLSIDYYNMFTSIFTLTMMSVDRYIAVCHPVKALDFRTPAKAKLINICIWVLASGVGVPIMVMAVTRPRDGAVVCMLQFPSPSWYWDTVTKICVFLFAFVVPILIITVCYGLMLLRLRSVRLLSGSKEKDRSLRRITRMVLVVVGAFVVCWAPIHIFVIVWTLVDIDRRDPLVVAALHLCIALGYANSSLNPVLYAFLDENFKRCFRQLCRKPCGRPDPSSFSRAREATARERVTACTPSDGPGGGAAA
T6 sequence (Q9HC97 whole entry): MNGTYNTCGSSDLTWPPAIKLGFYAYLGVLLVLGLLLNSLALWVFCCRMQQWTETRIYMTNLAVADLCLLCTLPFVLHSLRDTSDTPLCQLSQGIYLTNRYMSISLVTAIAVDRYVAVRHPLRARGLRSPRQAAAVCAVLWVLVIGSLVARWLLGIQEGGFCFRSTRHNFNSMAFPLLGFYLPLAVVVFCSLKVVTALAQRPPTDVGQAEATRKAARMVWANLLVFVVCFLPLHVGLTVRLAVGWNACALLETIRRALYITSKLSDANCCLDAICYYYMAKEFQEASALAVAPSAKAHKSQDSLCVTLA
T5 sequence (P21554 whole entry): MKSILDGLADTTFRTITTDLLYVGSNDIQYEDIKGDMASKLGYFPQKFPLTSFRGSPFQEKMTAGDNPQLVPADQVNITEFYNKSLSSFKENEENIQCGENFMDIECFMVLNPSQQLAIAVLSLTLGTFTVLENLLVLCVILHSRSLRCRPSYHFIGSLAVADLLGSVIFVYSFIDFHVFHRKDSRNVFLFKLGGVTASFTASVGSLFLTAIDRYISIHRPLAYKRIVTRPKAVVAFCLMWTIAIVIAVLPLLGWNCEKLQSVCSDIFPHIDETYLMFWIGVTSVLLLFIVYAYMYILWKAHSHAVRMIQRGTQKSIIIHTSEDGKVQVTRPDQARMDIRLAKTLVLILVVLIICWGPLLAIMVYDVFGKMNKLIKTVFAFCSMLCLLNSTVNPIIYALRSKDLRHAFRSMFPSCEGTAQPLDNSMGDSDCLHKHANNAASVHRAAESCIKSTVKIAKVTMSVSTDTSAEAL
Sequence of E3 ubiquitin-protein ligase Mdm2 (Q00987 whole entry): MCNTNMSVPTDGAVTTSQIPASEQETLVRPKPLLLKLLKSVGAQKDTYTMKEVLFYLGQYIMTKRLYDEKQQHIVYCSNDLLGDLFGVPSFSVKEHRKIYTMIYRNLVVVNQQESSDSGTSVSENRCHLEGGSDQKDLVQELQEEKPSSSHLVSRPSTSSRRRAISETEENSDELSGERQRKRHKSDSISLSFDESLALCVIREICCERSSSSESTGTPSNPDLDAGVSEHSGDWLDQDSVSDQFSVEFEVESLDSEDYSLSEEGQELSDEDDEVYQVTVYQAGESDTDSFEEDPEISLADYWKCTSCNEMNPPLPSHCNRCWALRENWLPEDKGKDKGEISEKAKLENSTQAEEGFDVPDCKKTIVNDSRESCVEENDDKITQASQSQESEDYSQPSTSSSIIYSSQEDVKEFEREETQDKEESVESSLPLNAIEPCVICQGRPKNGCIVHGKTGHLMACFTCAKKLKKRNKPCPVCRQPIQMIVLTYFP
Sequence of Mu-type opioid receptor (P35372 whole entry): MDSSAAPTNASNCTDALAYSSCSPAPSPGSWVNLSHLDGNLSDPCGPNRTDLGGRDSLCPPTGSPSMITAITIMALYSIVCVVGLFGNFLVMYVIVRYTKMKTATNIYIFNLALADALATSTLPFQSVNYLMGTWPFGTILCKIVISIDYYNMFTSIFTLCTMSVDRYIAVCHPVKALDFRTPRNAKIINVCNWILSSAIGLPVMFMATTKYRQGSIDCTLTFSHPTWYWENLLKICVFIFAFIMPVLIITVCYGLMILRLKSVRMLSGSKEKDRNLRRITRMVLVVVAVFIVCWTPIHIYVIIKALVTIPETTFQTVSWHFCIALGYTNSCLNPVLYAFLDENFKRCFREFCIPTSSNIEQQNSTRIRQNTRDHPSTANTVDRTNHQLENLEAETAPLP

SMILES: Cc1ccc(C)c(OCCC(=O)NCCc2ccc(S(N)(=O)=O)cc2)c1
- IC50 [1]: > 32 µM (inactive)

SMILES: CCN(CC)c1ccc(/C=C2\C(=O)c3ccc(C(=O)O)cc3C2=O)cc1
- EC50 (Troponin, cardiac muscle): 0.516 µM (active)
- IC50 [2]: 85.4 µM (active)
- IC50 [3]: 37.7 µM (active)
- IC50 (Protein skinhead-1): 23.3 µM (active)
- EC50 [4]: 0.1 µM (active)

SMILES: Cc1nc(N2CCN(C(=O)c3ccccc3)CC2)c2c3c(sc2n1)CC(C)CC3 (centres undefined)
- EC50 (Cannabinoid receptor 1 [5]): > 32 µM (inactive)
- IC50 (Cannabinoid receptor 1 [6]): 1.68 µM (active)
- EC50 [7]: > 32 µM (inactive)
- IC50 (Cannabinoid receptor 2 [8]): > 9.18 µM (active)
- IC50 [9]: > 32 µM (inactive)
- EC50 (Cannabinoid receptor 2 [10]): 24.1 µM (inactive)
- IC50 [11]: 21.5 µM (inactive)

SMILES: CC(=O)Nc1ccc(NC(=O)C(C)OC(=O)c2ccccc2C(=O)c2ccc(Cl)c([N+](=O)[O-])c2)cc1 (centres undefined)
- EC50 (Mu-type opioid receptor): > 32 µM (inactive)
- IC50 [12]: 8.15 µM (active)
- pIC50 [13]: 5.06
- EC50 [14]: > 32 µM (inactive)
- IC50 [15]: > 32 µM (inactive)
- EC50 (Beta-galactosidase): > 31.5 µM (inactive)

— ChEMBL document CHEMBL1201862, “PubChem BioAssay data set” (2004)
